# Measurements: patent EP0146338A2, “A blood accelerator 2, 3-diphosphoglyceric acid” (SHIRATORI PHARMACEUTICAL CO. LTD., priority 1983, dated 1985)
# Tests used:
# [1] = system: human ACD (acid chitorate dextrose) preserved blood; assay: 2,3-DPG level after addition of naphthoquinone to preserved blood (Keitt's method); type: cell-based; settings: for Blood level of 2,3-DPG: One hundred PM naphthoquinone in 1 ml human ACD preserved blood, 60 min at 37°C, control 294; for Concentrations of 2,3-DPG: preserved blood, mean ± standard error, n=30
# [2] = Toxicity (LD50), mouse; settings: in vivo
# [3] = Toxicity (LD50), rat; settings: in vivo, po
# [4] = system: fresh blood taken from a patient with an ischemic disease; assay: 2,3-DPG level after addition of vitamin K3 to fresh blood of patients with an ischemic disease; type: cell-based, human; settings: 100 µM
# Protocol: One hundred PM of each naphthoquinone (use 10 mM naphthoquinone dissolved in 50 % ethanol solution) was added to 1 ml of human ACD (acid chitorate dextrose) preserved blood (of which 2,3-DPG concentration had decreased to 1/20 of the normal level). After incubation for 60 min at 37°C, the reaction was stopped by addition of perchloric acid. According to Keitt's method (J. Lab. Clin. Med. 77, 470-475 (1971)), thereafter, 2,3-DPG was extracted and quantified.
# One hundred µM of vitamin K3 was added in 1 ml of fresh blood taken from a patient with an ischemic disease, and the concentration of 2,3-DPG was determined in the same manner as in Example 1.
smiles,measurement,setting,value
"O=C1C=C(S(=O)(=O)O)c2ccccc2C1=O [1,2-Naphthoquinone-4-sulfonic acid, 1,2-naphthoquinone-4-sulfonic acid]","Blood level of 2,3-DPG",[1],3923 n moles/ml RBC
same,LD50,[2]; ip,625 mg/kg
"O=C1C=CC(=O)c2ccccc21 [1,4-Naphthoquinone, 1,4-naphthoquinone]","Blood level of 2,3-DPG",[1],3554 n moles/ml RBC
same,LD50,[3],190 mg/kg
"O=C1C(Cl)=C(Cl)C(=O)c2ccccc21 [2,3-Dichloro-1,4-naphthoquinone, 2,3-dichloro-1,4-naphthoquinone]","Blood level of 2,3-DPG",[1],3971 n moles/ml RBC
"CC1=CC(=O)c2ccccc2C1=O [Vitamin K3, 2-methyl-l,4-naphthoqunone]","Blood level of 2,3-DPG",[1],3660 n moles/ml RBC
same,"Concentrations of 2,3-DPG","[1]; dose 10 µM, dose 0: 227 ± 15",1124 ± 107 (30) n moles/ml RBC
same,"Concentrations of 2,3-DPG",[1]; dose 100 µM,3256 ± 244 (30) n moles/ml RBC
same,"Concentrations of 2,3-DPG",[1]; dose 1000 µM,5144 ± 253 (30) n moles/ml RBC
same,"Concentrations of 2,3-DPG",[1]; dose 10000 µM,5569 ± 311 (30) n moles/ml RBC
same,"blood levels of 2,3-DPG in the patients with ischemic diseases (in words)",[4]; normal subjects 4931± 53,recovered to the normal level or higher levels
same,"Concentrations of 2,3-DPG","[4]; Buerger's Disease, n=12, no addition 4253±287",5490±117(12) n moles/ml RBC
same,"Concentrations of 2,3-DPG","[4]; Closed arteriosclerosis, n=15, no addition 4796±365",5624±266(15) n moles/ml RBC
same,LD50,[2]; po,500 mg/kg
